Laboratory results: patent US20110172193A1, “PRO-DRUGS OF (E)-7-(3-(2-AMINO-1-FLUOROETHYLIDENE)PIPERIDIN-1-YL)-1-CYCLOPROPYL-6-FLUORO-8-METHOXY-4-OXO-1,4-DIHYDROQUINOLINE-3-CARBOXYLIC ACID” (priority 2010, published 2011)
Values after ≈ are worked out from the molar mass of the structure shown. Where two headings read alike, the source gives them in different places.

Experiments:
[1] = tested on: Staphylococcus aureus (OC8525), a methicillin-resistant strain (MRSA); experiment: In vivo efficacy in a mouse systemic infection model
In short: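 Female Swiss Webster mice infected i.p. with ~5×10^5 CFU MRSA OC8525 in 7% mucin; compound in D5W given i.v. or p.o. 1 h later, 8 mice/group. Survival over 3 days; ED50 from survival curves, normalized to parent-acid content, or % survival at a single dose.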

[2] = Rat pharmacokinetics; assay type: in vivo, Sprague-Dawley rats; conditions: iv
Description: Male Sprague-Dawley rats (n=4) were fasted overnight, then dosed intravenously (IV) with a 1 mg/mL solution of a compound of the present invention (prodrug) or parent (compound of formula (M)) in 20% hydroxypropyl-β-cyclodextrin at 2 mg/kg. Blood samples were collected up to 24 hours post dose into tubes containing an anticoagulant. Blood samples were centrifuged for cell removal, and 100 μL plasma was transferred to a clean vial, placed on dry ice, and stored in a −70° C. freezer prior to analysis.
Plasma samples were prepared as follows. Two volumes of acetonitrile containing formic acid and internal standard were added to one volume of plasma to precipitate proteins. Samples were centrifuged (3000 g for 5 min) and supernatant removed for analysis by LC-MS-MS. Calibration standards were prepared by adding appropriate volumes of stock solution directly into plasma and treated identically to collected plasma samples. LC-MS-MS analysis was performed utilizing multiple reaction monitoring for detection of characteristic ions for the test compounds (pro-drugs), parent (compound of formula (M)) and internal standard.
Plasma concentrations were measured as described above to determine a concentration vs time profile. The area under the plasma concentration vs time curve (AUC) was calculated using the linear trapezoidal method. Fitting of the data to obtain pharmacokinetic parameters was carried out using non-compartmental analysis, with results as listed in Table 14, below. The term “NA” means the data was not available.

[3] = In vitro bioconversion of pro-drug to parent drug in human blood and plasma; assay type: in vitro ADME; conditions: for Peak Area of pro-drug: 37° C.
Description: Compounds #1, #4, #6, #15, and #16, as well as the parent drug [(E)-7-(3-(2-amino-1-fluoroethylidene)piperidin-1-yl)-1-cyclopropyl-6-fluoro-8-methoxy-4-oxo-1,4-dihydroquinoline-3-carboxylic acid] (the compound of formula (M)) were dissolved to 1 mg/mL, and diluted to 20 ng/mL in fresh, chilled (4° C.) human or mouse whole blood or plasma, or kidney and liver extract (prepared from the respective fresh mouse organs as described below). Compound concentrations were normalized to parent drug content by multiplying by a ratio of the relative molecular weights. Time 0 (minute) samples were prepared by immediately diluting with an equal volume of acetonitrile, vortexing, and transferring the samples to ice. For additional time points, samples were placed in an incubator (Tables 4 and 5), or in a heating block (Tables 6-12) at 37° C. for the indicated time, then immediately vortexed with an equal volume of acetonitrile and placed on ice. Samples were centrifuged and further diluted with an equal volume of water to a final concentration of 25% acetonitrile prior to analysis by HPLC; diluted samples were retained in the cooled (4° C.) HPLC sample injection chamber pending injection.
Representative compounds of the present invention and the parent compound were analyzed by reversed-phase HPLC using an Agilent 1100 system. Samples were injected onto a Zorbax SB-C18 column (3.5 μM, 4.6×150 mm) with a guard cartridge, and developed on a gradient of 15% aqueous acetonitrile in 0.1% trifluoroacetic acid to 85% aqueous acetonitrile in 0.1% trifluoroacetic acid over 10 minutes. The solvent flow rate was 1 mL/min, and the column temperature was 40° C. Compound and parent peak identification was by diode array detection, monitored at 300 nm Conversion of the compounds (prodrugs) to parent drug was estimated by peak areas (A300 nm, mAU) of the respective agents.
For studies with Compounds #1, #4 and #6 (with results as listed in Tables 8, 9 and 10), fresh human whole blood and plasma samples were purchased from BioChemed Services, shipped in Styrofoam coolers maintained with frozen cold packs, and used within 48 hours of receipt. For studies with Compounds #15 and #16 (with results as listed in Tables 11 and 12), blood was drawn from volunteers and whole blood samples and isolated plasma prepared and immediately placed on ice. Whole blood and plasma samples were maintained at 4° C. and used within approximately 30 hours.

[4] = In vitro bioconversion of pro-drug to parent drug in mouse blood, plasma, liver and kidney extract; assay type: in vitro ADME; conditions: for Peak Area of pro-drug: 37° C. heating block
Description: Compound concentrations were normalized to parent drug content by multiplying by a ratio of the relative molecular weights. Time 0 (minute) samples were prepared by immediately diluting with an equal volume of acetonitrile, vortexing, and transferring the samples to ice. […] Representative compounds of the present invention and the parent compound were analyzed by reversed-phase HPLC using an Agilent 1100 system. […] The solvent flow rate was 1 mL/min, and the column temperature was 40° C. Compound and parent peak identification was by diode array detection, monitored at 300 nm Conversion of the compounds (prodrugs) to parent drug was estimated by peak areas (A300 nm, mAU) of the respective agents. Mouse whole blood and plasma were collected from Swiss Webster mice, and stored at 4° C. until use (within 48 hours). […] For these experiments, fresh whole mouse livers or kidneys were homogenized for approximately 30 seconds (Omni-Tip™ disposable homogenizer tip) in 1 mL sterile saline and immediately stored on ice. Crude extracts (non-centrifuged) were incubated with the test compound or parent (20 μg/mL) and processed as described above.

[5] = Aqueous solubility, modified procedure (saturated solutions, RP-HPLC); assay type: physicochemical; conditions: thermodynamic from solid, 100 mM phosphate buffer
Description: In these cases, the samples were targeted at a pH of 4 and 7 and were measured exclusively using 100 mM phosphate buffers. For both pH's, measured samples were initially prepared at ˜3 mg/ml and ˜10 mg/ml concentrations and for samples that dissolved rapidly, additional compound was added to the solution until saturated solutions were obtained.

[6] = Solubility of parent compound in citrate buffer (HPLC); assay type: physicochemical; conditions: aqueous buffer, thermodynamic from solid, 50 mM citrate buffer
Description: The solubility of the parent compound (the compound of formula (M), also known as ((E)-7-(3-(2-amino-1-fluoroethylidene)piperidin-1-yl)-1-cyclopropyl-6-fluoro-8-methoxy-4-oxo-1,4-dihydroquinoline-3-carboxylic acid), was determined in a separate experiment, in which solutions containing 50 mM citrate buffer at various pH were added to the solid compound at various target concentrations. The samples were mixed overnight and the pH measured with a Beckman φ360 pH/Temp/mV Meter. The samples were then filtered using nylon centrifuge filters. The supernatant was diluted and the concentration was measured with HPLC.

[7] = Sprague-Dawley, in vivo, male rats, 2 mg/kg i.v., analyte: the administered compound itself

## COc1c(N2CCC/C(=C(\F)CNC(=O)CNC(=O)[C@@H](N)CCC(=O)O)C2)c(F)cc2c(=O)c(C(=O)O)cn(C3CC3)c12.Cl [Compound 16, 7-(3-{2-[2-((2S)-2-Amino-4-carboxy-butyrylamino)-acetylamino]-1-fluoro-ethylidene}-piperidin-1-yl)-1-cyclopropyl-6-fluoro-8-methoxy-4-oxo-1,4-dihydro-quinoline-3-carboxylic acid hydrochloride]
[1]; Staphylococcus aureus, 72 h, Swiss Webster mice infected i.p. with MRSA, oral dose 1 h later, 3 day survival, normalized to parent content, read-out: ED50 p.o.
  ED50: > 13.9 mg/kg
[1]; Staphylococcus aureus, iv, 72 h, Swiss Webster mice infected i.p. with MRSA, i.v. dose 1 h later, 3 day survival, normalized to parent content, read-out: ED50 i.v.
  ED50: 1.6 mg/kg
[2]; in vivo
  Conversion to the parent drug in vivo (in words): rapidly converted to the parent drug
[3]; fresh human blood (volunteers), 0 min
  Peak Area of pro-drug: 370 mAU
[3]; fresh human blood (volunteers), 5 min
  Peak Area of pro-drug: 332 mAU
[3]; fresh human blood (volunteers), 7.5 min
  Peak Area of pro-drug: 342 mAU
[3]; fresh human blood (volunteers), 10 min
  Peak Area of pro-drug: 374 mAU
[3]; fresh human blood (volunteers), 15 min
  Peak Area of pro-drug: 359 mAU
[3]; fresh human blood (volunteers), […]
  Peak Area of pro-drug: 336 mAU
[3]; fresh human plasma (volunteers), 0 min
  Peak Area of pro-drug: 351 mAU
[3]; fresh human plasma (volunteers), 5 min
  Peak Area of pro-drug: 355 mAU
[3]; fresh human plasma (volunteers), 7.5 min
  Peak Area of pro-drug: 366 mAU
[3]; fresh human plasma (volunteers), 10 min
  Peak Area of pro-drug: 372 mAU
[3]; fresh human plasma (volunteers), 15 min
  Peak Area of pro-drug: 371 mAU
[3]; fresh human plasma (volunteers), […]
  Peak Area of pro-drug: 350 mAU
[3]; human whole blood and plasma
  Conversion to the parent compound (summary in words): not measured to convert to the parent drug
[4]; fresh mouse blood, 0 min
  Peak Area of pro-drug: 332 mAU
[4]; fresh mouse blood, 5 min
  Peak Area of pro-drug: 131 mAU
[4]; fresh mouse blood, 7.5 min
  Peak Area of pro-drug: 99 mAU
[4]; fresh mouse blood, 10 min
  Peak Area of pro-drug: 71 mAU
[4]; fresh mouse blood, 15 min
  Peak Area of pro-drug: 34 mAU
[4]; fresh mouse blood, […]
  Peak Area of pro-drug: 174 mAU
[4]; fresh mouse plasma, 0 min
  Peak Area of pro-drug: 406 mAU
[4]; fresh mouse plasma, 5 min
  Peak Area of pro-drug: 220 mAU
[4]; fresh mouse plasma, 7.5 min
  Peak Area of pro-drug: 178 mAU
[4]; fresh mouse plasma, 10 min
  Peak Area of pro-drug: 149 mAU
[4]; fresh mouse plasma, 15 min
  Peak Area of pro-drug: 98 mAU
[4]; fresh mouse plasma, […]
  Peak Area of pro-drug: 285 mAU
[4]; mouse plasma
  Conversion to the parent compound (summary in words): converted to an unknown metabolite, but not substantially to the parent drug
[4]; mouse whole blood
  Conversion to the parent compound (summary in words): converted to the parent in mouse whole blood via the intermediacy of a metabolite of unknown identity
[5]; pH 4, aqueous buffer, read-out: Aqueous Solubility pH~4
  solubility at 18 h: > 3690 µg/mL
[5]; pH 7, aqueous buffer, read-out: Aqueous Solubility pH~7
  solubility at 18 h: > 3360 µg/mL

## COc1c(N2CCC/C(=C(\F)CN)C2)c(F)cc2c(=O)c(C(=O)O)cn(C3CC3)c12 [Compound (M), (E)-7-(3-(2-amino-1-fluoroethylidene)piperidin-1-yl)-1-cyclopropyl-6-fluoro-8-methoxy-4-oxo-1,4-dihydroquinoline-3-carboxylic acid]
[1]; administered i.v., mouse MRSA systemic infection
  ED50: 0.71 mg/kg/day
[1]; administered p.o., mouse MRSA systemic infection
  ED50: 10.6 mg/kg/day
[2]; [7]
  AUC: 718 ng·h/mL
  Cmax: 805 ng/mL
  clearance: 47.1 mL/min/kg
[2]; Sprague-Dawley, in vivo, male rats, 2 mg/kg i.v., analyte: the administered compound itself, read-out: Vss
  Vd: 6.08 L/kg
[2]; Sprague-Dawley, plasma, male rats, 2 mg/kg i.v., analyte: the administered compound itself
  half-life: 1.5 h
[6]; pH 4.11, mixed overnight
  solubility: 140 µg/mL (≈ 334 µM)
[6]; pH 6.75, mixed overnight
  solubility: 40 µg/mL (≈ 95.4 µM)
